Key:
Hepatitis C virus [1] = experiment: Antiviral activity against Hepatitis C virus H77 genotype 1a infected in human HuH7 cells assessed as observed antiviral potency after 72 hrs by luciferase reporter gene assay; assay type: functional, organism-based, Hepacivirus hominis; conditions: genotype 1a H77, Huh-7, 72 h
Hepatitis C virus [2] = experiment: Antiviral activity against Hepatitis C virus H77 genotype 1a infected in human HuH7 cells assessed as plasma adjusted antiviral potency after 72 hrs by luciferase reporter gene assay; assay type: functional, organism-based, Hepacivirus hominis; conditions: genotype 1a H77, Huh-7, Plasma
Hepatitis C virus [3] = experiment: Antiviral activity against Hepatitis C virus H77 genotype 1a infected in human HuH7 cells assessed as intrinsic antiviral potency after 72 hrs by luciferase reporter gene assay; assay type: functional, organism-based, Hepacivirus hominis; conditions: genotype 1a H77, Huh-7, 72 h
[4] = Cytotoxicity against human MT4 cells after 5 days by Cell Titre Glo assay; assay type: cell-based
[5] = Lipophilicity, log D of the compound by chromatography; assay type: physicochemical
[6] = Intrinsic cytotoxicity against human MT4 cells after 5 days by Cell Titre Glo assay; assay type: cell-based
[7] = Mean residence time in Sprague-Dawley rat at 1 mg/kg, iv; assay type: ADME, organism-based; parameters: dose 1 mg/kg, route intravenous; conditions: in vivo
[8] = Fraction unbound in cell culture medium at 2 uM at pH 7.4 by equilibrium dialysis method; assay type: ADME
[9] = Mean residence time in Sprague-Dawley rat at 0.5 mg/kg, iv; assay type: ADME, organism-based; parameters: dose 0.5 mg/kg, route intravenous; conditions: in vivo
[10] = Cytotoxicity against human HuH7 cells after 3 days by Cell Titre Glo assay; assay type: cell-based, Huh-7
Hepatitis C virus [11] = experiment: Antiviral activity against HCV genotype 1b harboring NS5B polymerase M423T mutant infected in human HuH7-Lunet cells by luciferase reporter gene assay; assay type: functional, organism-based, Hepacivirus hominis; conditions: Huh-7
Hepatitis C virus [12] = experiment: Selectivity ratio of EC50 for HCV genotype 1b harboring NS5B polymerase M423T mutant to EC50 for HCV genotype 1b harboring wild type NS5B polymerase; assay type: functional, Hepacivirus hominis

Compound	EC50 (Hepatitis C virus [1]) [nM]	EC50 (Hepatitis C virus [2]) [nM]	EC50 (Hepatitis C virus [3]) [nM]	CC50 at 120 h [4] [nM]	chromatographic logD [5]	CC50 at 120 h [6] [nM]	MRT [7] [min]	fraction unbound at 2 µM [8]	MRT [9] [min]	CC50 at 72 h [10] [nM]	EC50 (Hepatitis C virus [11]) [nM]	Ratio EC50 (Hepatitis C virus [12])
C[C@H]1CC[C@H](C(=O)N(c2cc(C#CC3(C(F)(F)F)CCC3)sc2C(=O)O)[C@H]2CC[C@H](Oc3ccc(O)nn3)CC2)CC1	120	607	2.7	> 20000	–	–	–	–	–	–	–	–
CC(C)(C)C#Cc1cc(N(C(=O)[C@H]2CC[C@H](C)CC2)[C@H]2CC[C@H](Oc3ccccn3)CC2)c(C(=O)O)s1	297	1050	2.5	> 20000	3	100	300	–	–	–	–	–
CC(C)N(c1cc(C#CC(C)(C)C)sc1C(=O)O)C(=O)[C@H]1CC[C@H](Cl)CC1	315	–	44	> 20000	–	–	–	0.14	–	–	–	–
CC(C)(C)C#Cc1cc(N(C(=O)[C@H]2CC[C@H](C)CC2)[C@H]2CC[C@H](Oc3ccncn3)CC2)c(C(=O)O)s1	75	1390	2.8	> 20000	2.3	599	–	–	426	–	–	–
C[C@@H](CCOc1cccnc1)N(c1cc(C#CC(C)(C)C)sc1C(=O)O)C(=O)[C@H]1CC[C@H](C)CC1	102	–	2.4	> 20000	–	–	–	0.02	–	–	–	–
CC(C)N(c1cc(C#CC(C)(C)C)sc1C(=O)O)C(=O)[C@H]1CC[C@H](C)CC1	–	–	5.5	> 20000	–	–	–	0.06	–	≥ 20000	293	11
CC(C)N(C(=O)C1CCC(F)(F)CC1)c1cc(C#CC(C)(C)C)sc1C(=O)O	32100	–	12800	> 20000	–	–	–	0.4	–	–	–	–
CC(C)(C)C#Cc1cc(N(C(=O)[C@H]2CC[C@H](C)CC2)[C@H]2CC[C@@H](Oc3ccc(O)nn3)CC2)c(C(=O)O)s1	24	277	2.6	> 20000	1.8	2170	–	–	30	–	–	–
CC(C)(C#Cc1cc(N(C(=O)[C@H]2CC[C@H](C)CC2)[C@H]2CC[C@H](OC3CCOC3)CC2)c(C(=O)O)s1)CCO (stereo partly specified)	–	167	6.1	> 20000	1.6	31300	–	–	24	–	–	–
CC(C)N(C(=O)[C@@H]1CC[C@@H]2C[C@@H]2CC1)c1cc(C#CC(C)(C)C)sc1C(=O)O	1620	–	88	> 20000	–	–	–	0.05	–	–	–	–
CC(C)(C)C#Cc1cc(N(C(=O)[C@H]2CC[C@H](C)CC2)[C@H]2CC[C@H](OC3COC3)CC2)c(C(=O)O)s1	–	102	4.3	> 20000	2.6	8350	–	–	–	–	–	–
CC(C)N(C(=O)C1CCCCC1)c1cc(C#CC(C)(C)C)sc1C(=O)O	2800	–	500	> 20000	–	–	–	0.18	–	–	–	–
CC(C)N(c1cc(C#CC(C)(C)C)sc1C(=O)O)C(=O)[C@H]1CC[C@H](CF)CC1	169	–	31	> 20000	–	–	–	0.18	–	–	–	–
C[C@H]1CC[C@H](C(=O)N(c2cc(C#CC3(C(F)(F)F)CC3)sc2C(=O)O)[C@H]2CC[C@H](Oc3ccc(O)nn3)CC2)CC1	61	751	6.9	> 20000	–	–	–	–	–	–	–	–
CC(C)(C)C#Cc1cc(N(C(=O)[C@H]2CC[C@H](C)CC2)[C@H]2CC[C@@H](Oc3cccnc3)CC2)c(C(=O)O)s1	45	–	1.2	> 20000	–	–	–	–	12	–	–	–
CC(C)(C)C#Cc1cc(N(C(=O)[C@H]2CC[C@H](C)CC2)[C@H]2CC[C@H](OC3CCOCC3)CC2)c(C(=O)O)s1	–	1830	2.4	> 20000	2.4	1990	–	–	–	–	–	–
CC(C)(C#Cc1cc(N(C(=O)[C@H]2CC[C@H](C)CC2)[C@H]2CC[C@H](Oc3ccc(O)nn3)CC2)c(C(=O)O)s1)C(F)(F)F	51	516	4.9	> 20000	–	–	–	–	–	–	–	–
CC(C)(C)C#Cc1cc(N(C(=O)[C@H]2CC[C@H](C)CC2)C2CCN(C(=O)c3cccnc3)CC2)c(C(=O)O)s1	183	–	43	> 20000	–	–	–	0.23	–	–	–	–
CC1=CC[C@@H](C(=O)N(c2cc(C#CC(C)(C)C)sc2C(=O)O)C(C)C)CC1	45	–	3.7	> 20000	–	–	–	0.08	–	–	–	–
